From patent EP4603105A1, “PHARMACEUTICAL COMPOSITION CONTAINING CYCLIC COMPOUND HAVING SELECTIVE KRAS INHIBITORY EFFECT AGAINST HRAS AND NRAS” (CHUGAI SEIYAKU KABUSHIKI KAISHA, priority 2022, dated 2024)
*1 amine or outer side, *2 acyl side, *3 side chain or, on linkers, in order; H or OH if unused. Where a SMILES comes first, the peptide text is derived from it. Bridges are numbered along the chain shown (N, C = ends). [ ]: non-standard residue; d: D form. The star is where a group is joined. hPhe(3-Cl-4-CF3) = N[C@@H](CCc1ccc(C(F)(F)F)c(Cl)c1)C(=O)O; X51 = CCCN([C@@H](Cc1ccc(OC(F)(F)F)cc1)C(=O)[*:2])[*:1]; NPrPhe(4-CF3) = CCCN[C@@H](Cc1ccc(C(F)(F)F)cc1)C(=O)O; X28 = Cc1ccc(C[C@@H](C(=O)[*:2])N(CC2CCCCC2)[*:1])cc1; NMeGly(cPent) = CN[C@H](C(=O)O)C1CCCC1; NMeD = CN[C@@H](CC(=O)O)C(=O)O; NMeL = CN[C@@H](CC(C)C)C(=O)O; Morpholide = C1CN(*)CCO1; NMeA = CN[C@@H](C)C(=O)O; Ac5c = NC1(C(=O)O)CCCC1; Aze = O=C(O)[C@@H]1CCN1; Sar = CNCC(=O)O

Key:
[1] = tested on: human lung cancer strain NCI-H441; type: cell-based
Method: A test compound was dispensed into a U-bottom 384-well plate as 40 nL serially diluted dimethyl sulfoxide solutions using a liquid handler Echo (LABCYTE). […] This cell suspension was dispensed in an amount of 40 µL per well into a plate containing the test compound, and cultured at 37°C in a 5% carbon dioxide gas incubator. Four days later, 20 µL of CellTiter-Glo (registered trademark) (Promega) was added to each well and […] was measured. […]

[2] = molecular target: GDP-bound NRAS wild-type protein (Homo sapiens, UniProt P01111); test: Binding to NRAS by surface plasmon resonance (SPR), KD and KD ratio to KRAS
Method: (§1) Surface plasmon resonance was used to analyze the binding affinity of compounds for KRAS, NRAS, and HRAS. The apparatus used was Biacore 8K, 8K+, or T200 (GE Healthcare), and the running buffer used was HBS (10 mM HEPES-NaOH, 150 mM NaCl, pH 7.4) containing 1 mM DTT, 10 mM MgCl2, 0.01% Tween 20, 10 µM GDP, and 4% DMSO.
(§2) Biotinylated Avi-tag fusion KRAS, NRAS, and HRAS proteins were expressed in E. coli BL21 (DE3) strains, and after cells were homogenized, they were purified using Streptavidin Mutein Matrix and Superdex 75. After purification, GDP-loaded KRAS, NRAS, and HRAS proteins were immobilized on the surface of Sensor Chip CAP (Cytiva) coated with Biotin CAPture Reagent in an immobilization amount of about 100 to 300 RU. Binding of each compound was evaluated by the Single Cycle Kinetics method, and a running buffer or a compound solution was added to the RAS protein non-immobilized surface and the immobilized surface to obtain a binding response. The flow rate was set to 100 µL/min, and in the compound-adding cycle, compound solutions having different concentrations were intermittently added for 75 seconds each, starting from a low concentration. […] In the blank cycle, a running buffer was intermittently added and not the compound solution. The Biotin CAPture Reagent and RAS proteins were immobilized for each cycle, and at the end of each cycle, the sensor chip was regenerated by the regeneration solution appended to the Biotin CAPture Kit (Cytiva). Measurement was carried out at 30°C.
(§3) The resulting sensorgram was subjected to curve fitting based on a 1:1 binding model on Biacore Insight Evaluation Software or T200 Evaluation Software, and thereby the dissociation constant KD of each compound with respect to KRAS, NRAS, and HRAS was determined. […] Blank indicates a compound from which the KD value with respect to NRAS or HRAS was not obtained.

[3] = molecular target: HRAS wild-type protein (Homo sapiens, UniProt P01112); test: Binding to HRAS by surface plasmon resonance (SPR), KD and KD ratio to KRAS
Method: as §1, §2, §3

[4] = ratio of KD for GDP-bound NRAS wild-type protein to KD for KRAS
[5] = ratio of KD for HRAS wild-type protein to KD for KRAS
[6] = ratio of the KD value with respect to HRAS wild-type protein to the KD value with respect to KRAS

GDP-bound NRAS wild-type protein, sequence (P01111 whole entry): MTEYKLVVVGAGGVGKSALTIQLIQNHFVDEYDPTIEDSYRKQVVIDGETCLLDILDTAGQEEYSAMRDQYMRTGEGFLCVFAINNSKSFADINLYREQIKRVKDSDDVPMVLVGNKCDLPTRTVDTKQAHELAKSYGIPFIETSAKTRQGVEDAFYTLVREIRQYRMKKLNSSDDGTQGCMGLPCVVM
HRAS wild-type protein, sequence (P01112 whole entry): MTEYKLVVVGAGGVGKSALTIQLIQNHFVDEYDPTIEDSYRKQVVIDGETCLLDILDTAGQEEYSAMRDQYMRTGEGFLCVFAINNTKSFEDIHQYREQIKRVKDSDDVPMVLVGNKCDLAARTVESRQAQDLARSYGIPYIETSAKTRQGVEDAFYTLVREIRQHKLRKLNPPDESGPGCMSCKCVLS

Row | Compound | IC50 [1] [nM] | NRAS /KRAS [2, 4] | HRAS /KRAS [3, 5] | NRAS /KRAS ([2]; ratio of the KD value with respect to GDP-bound NRAS wild-type protein to the KD value with respect to KRAS) | HRAS /KRAS [3, 6] | HRAS /KRAS ([3]; ratio of KD value for HRAS wild-type protein to KD value for KRAS (SPR))
1 | CCO[C@@H]1C[C@H]2C(=O)NC3(CC(C)(C)C3)C(=O)N(C)[C@@H](C3CCCC3)C(=O)N(C)[C@H](C(=O)N(C)CC)CC(=O)N(C)[C@@H]([C@@H](C)OC)C(=O)N[C@@H]([C@@H](C)CC)C(=O)N(C3CC3)CC(=O)N(C)[C@H]3C/C=C\CCN(C3=O)[C@@H](Cc3ccc(C)cc3)C(=O)N(C)CC(=O)N[C@@H](CCc3cc(F)c(C(F)(F)F)c(F)c3)C(=O)N2C1 [PP3184] | 30.4 | A (a compound having 10 or more and less than 20 is denoted as A) | A (a compound having 10 or more and less than 20 is denoted as A) |  |  | 
2 | CCCN(C)C(=O)[C@@H]1CC(=O)N(C)[C@@H](CCOC)C(=O)N[C@@H]([C@@H](C)CC)C(=O)N(C)CC(=O)N(C)[C@H]2C/C=C\CCN(C2=O)[C@@H](Cc2ccc(C(F)(F)F)cc2)C(=O)N(C)CC(=O)N[C@@H](CCc2ccc(C(F)(F)F)c(OC)c2)C(=O)N2C[C@H](OCC)C[C@H]2C(=O)NC2(CCC2)C(=O)N(C)[C@@H](C2CCCC2)C(=O)N1C [PP2018] | 5.3 |  |  | A (a compound having 10 or more and less than 20 is denoted as A) | B (a compound having 3 or more and less than 10 is denoted as B) | 
3 | CCC[C@H]1C(=O)N[C@@H]([C@@H](C)CC)C(=O)N(C)CC(=O)N(C)[C@H]2C/C=C\CCN(C2=O)[C@@H](Cc2ccc(C)cc2)C(=O)N(C)CC(=O)N[C@@H](CCc2ccc3sc(C)c(C)c3c2)C(=O)N2C[C@H](OCC)C[C@H]2C(=O)NC2(CC(C)(C)C2)C(=O)N(C)[C@@H](C(CC)CC)C(=O)N(C)[C@H](C(=O)N(C)C)CC(=O)N1C [PP2902] | 56.3 | AA (a compound having 20 or more is denoted as AA) | A (a compound having 10 or more and less than 20 is denoted as A) |  |  | 
4 | CC[C@H](C)[C@@H]1NC(=O)[C@H](CC(C)C)N(C)C(=O)C[C@@H](C(=O)N2CCOCC2)N(C)C(=O)[C@H](C2CCCC2)N(C)C(=O)C2(CCCC2)NC(=O)[C@@H]2CCCN2C(=O)[C@H](CCc2ccc(C(F)(F)F)c(Cl)c2)NC(=O)CN(C)C(=O)[C@H](Cc2ccc(C)cc2)N(CC2CCCCC2)C(=O)CN(C)C(=O)CN(C)C1=O [PP0097] ([NMeL]I[Sar][Sar][X28][Sar][hPhe(3-Cl-4-CF3)]P[Ac5c][NMeGly(cPent)][NMeD]-Morpholide; lactam N-11) | 240 | C (A compound having a KD ratio of 0.1 or more and less than 3 is denoted as C) | C (A compound having a KD ratio of 0.1 or more and less than 3 is denoted as C) |  |  | 
5 | CCO[C@@H]1C[C@H]2C(=O)NC3(CCC3)C(=O)N(C)[C@@H](C3CCCC3)C(=O)N(C)[C@H](C(=O)N3CCOCC3)CC(=O)N(C)[C@@H](CC(C)C)C(=O)N[C@@H]([C@@H](C)CC)C(=O)N(C)CC(=O)N(C)[C@H]3CCCCCN(C3=O)[C@@H](Cc3ccc4ccsc4c3)C(=O)N(C)CC(=O)N[C@@H](CCc3cc(F)c(C(F)(F)F)c(F)c3)C(=O)N2C1 [PP0921] | 139 | B (a compound having 3 or more and less than 10 is denoted as B) | B (a compound having 3 or more and less than 10 is denoted as B) |  |  | 
6 | CCCN1C(=O)[C@@H]2CCN2C(=O)[C@H](C)N(C)C(=O)[C@H]([C@@H](C)CC)NC(=O)[C@H](CC(C)C)N(C)C(=O)C[C@@H](C(=O)N2CCOCC2)NC(=O)[C@H](C2CCCC2)N(C)C(=O)C2(CCCC2)NC(=O)[C@@H]2CCCN2C(=O)[C@H](CCc2ccc(C(F)(F)F)c(Cl)c2)NC(=O)CN(C)C(=O)[C@@H]1Cc1ccc(C(F)(F)F)cc1 [PP0343] ([NMeL]I[NMeA][Aze][NPrPhe(4-CF3)][Sar][hPhe(3-Cl-4-CF3)]P[Ac5c][NMeGly(cPent)]D-Morpholide; lactam N-11) | 47.6 | C (A compound having a KD ratio of 0.1 or more and less than 3 is denoted as C) | B (a compound having 3 or more and less than 10 is denoted as B) |  |  | 
7 | CCO[C@@H]1C[C@H]2C(=O)NC3(CCC3)C(=O)N(C)[C@@H](C(CC)CC)C(=O)N3CCC[C@@H]3CC(=O)N(C)[C@@H](CC)C(=O)N[C@@H]([C@@H](C)CC)C(=O)N(C)CC(=O)N(C)[C@H]3C/C=C\CCN(C3=O)[C@@H](Cc3ccc(C(F)(F)F)cc3)C(=O)N(C)CC(=O)N[C@@H](CCc3cc(F)c(C(F)(F)F)c(F)c3)C(=O)N2C1 [PP1607] | 39.3 |  |  |  |  | A (a compound having 10 or more and less than 20 is denoted as A)
8 | CCO[C@@H]1C[C@H]2C(=O)NC3(CC(C)(C)C3)C(=O)N(C)[C@@H](C3CCCC3)C(=O)N(C)[C@H](C(=O)N(C)CC)CC(=O)N(C)[C@@H](C3CCC3)C(=O)N[C@@H]([C@@H](C)CC)C(=O)N(C)CC(=O)N(C)[C@H]3C/C=C\CCN(C3=O)[C@@H](Cc3ccc(C(F)(F)F)cc3)C(=O)N(C)CC(=O)N[C@@H](CCc3ccc(C(F)(F)F)c(OC)c3)C(=O)N2C1 [PP1985] | 17.7 |  |  |  | B (a compound having 3 or more and less than 10 is denoted as B) | 
9 | CCO[C@@H]1C[C@H]2C(=O)NC3(CC(C)(C)C3)C(=O)N(C)[C@@H](C3CCCC3)C(=O)N(C)[C@H](C(=O)N(C)C)CC(=O)N(C)[C@H]3CCCCCCc4ccc(cc4)C[C@@H](C(=O)N(C)CC(=O)N[C@@H](CCc4ccc(C(F)(F)F)c(OC)c4)C(=O)N2C1)N1CC/C=C\C[C@@H](C1=O)N(C)C(=O)CN(C1CC1)C(=O)[C@H]([C@@H](C)CC)NC3=O [PP3070] | 1.4 |  | B (a compound having 3 or more and less than 10 is denoted as B) |  |  | 
10 | CCC[C@H]1C(=O)N[C@@H]([C@@H](C)CC)C(=O)N(C)CC(=O)N(C)[C@H]2C/C=C\CCN(C2=O)[C@@H](Cc2ccc(C(F)(F)F)cc2)C(=O)N(C)CC(=O)N[C@@H](CCc2ccc(C(F)(F)F)c(OC)c2)C(=O)N2C[C@H](OCC)C[C@H]2C(=O)N(C)C2(CCC2)C(=O)N(C)[C@@H](C2CCCC2)C(=O)N(C)[C@H](C(=O)N2CCCCC2)CC(=O)N1C [PP3103] | 21.5 |  | A (a compound having 10 or more and less than 20 is denoted as A) |  |  | 
11 | CC[C@H](C)[C@@H]1NC(=O)[C@H](CC(F)F)N(C)C(=O)C[C@@H](C(=O)N(C)C)N(C)C(=O)[C@H](C2CCCC2)N(C)C(=O)C2(CC(C)(C)C2)NC(=O)[C@@H]2C[C@H](C)CN2C(=O)[C@H](CCc2ccc(C(F)(F)F)c(OC)c2)NC(=O)CN(C)C(=O)[C@H](Cc2ccc(C)cc2)N2CC/C=C\C[C@@H](C2=O)N(C)C(=O)CN(C)C1=O [PP1875] | 7.7 |  |  |  |  | 
12 | CCCN1C(=O)CN(C)C(=O)CN(C)C(=O)[C@H]([C@@H](C)CC)NC(=O)[C@H](CC(C)C)N(C)C(=O)C[C@@H](C(=O)N2CCOCC2)N(C)C(=O)[C@H](C2CCCC2)N(C)C(=O)C2(CCCC2)NC(=O)[C@@H]2CCCN2C(=O)[C@H](CCc2ccc(C(F)(F)F)c(Cl)c2)NC(=O)CN(C)C(=O)[C@@H]1Cc1ccc(OC(F)(F)F)cc1 [PP0137] ([NMeL]I[Sar][Sar][X51][Sar][hPhe(3-Cl-4-CF3)]P[Ac5c][NMeGly(cPent)][NMeD]-Morpholide; lactam N-11) | 13.4 |  |  |  |  | 
13 | CC[C@H](C)[C@@H]1NC(=O)[C@H](CC)N(C)C(=O)C[C@@H](C(=O)N(C)CC)N(C)C(=O)[C@H](C2CCCC2)N(C)C(=O)C2(CCC2)NC(=O)[C@@H]2C[C@H](C)CN2C(=O)[C@H](CCc2ccc(C(F)(F)F)c(OC)c2)NC(=O)CN(C)C(=O)[C@H](Cc2ccc(C)cc2)N2CC/C=C\C[C@@H](C2=O)N(C)C(=O)CN(C)C1=O [PP1853] | 30.4 |  |  |  |  | 
14 | CCC[C@H]1C(=O)N[C@@H]([C@@H](C)CC)C(=O)N(C)CC(=O)N(C)[C@H]2C/C=C\CCN(C2=O)[C@@H](Cc2ccc(C)cc2)C(=O)N(C)CC(=O)N[C@@H](CCc2ccc(Cl)c(OC)c2)C(=O)N2C[C@H](OCC)C[C@H]2C(=O)NC2(CC(C)(C)C2)C(=O)N(C)[C@@H](C(CC)CC)C(=O)N(C)[C@H](C(=O)N(C)C)CC(=O)N1C [PP2791] | 89.8 |  | A (a compound having 10 or more and less than 20 is denoted as A) |  |  | 
